US11364275B2, “Linear lipopeptide paenipeptins and methods of using the same” (priority 2017, dated 2022)
≈ marks a conversion by molar mass, not a printed value. Where two headings read alike, the source gives them in different places. Values belong to the compound of their own block, whether it stands above or below them. Where a SMILES comes first, the peptide text is derived from it. [ ]: non-standard residue; d: D form. The star is where a group is joined. Decanoyl = CCCCCCCCCC(=O)*; Heptanoyl = CCCCCCC(=O)*; Dab = NCC[C@H](N)C(=O)O

Experiments:
S. aureus ATCC 29213 [1] = format: cell-based, Staphylococcus aureus; details: ATCC 29213
Procedure: The impact of human serum on the antibacterial activity of selected paenipeptin analogues was determined using a procedure similar to that used for MIC determination as described above except that the microbiological medium was replaced by human serum (MP Biomedicals, Solon, Ohio). Paenipeptin analogues were two-fold diluted in 100% human serum and mixed with an equal volume of 90% serum containing approximately 1.5×10^5 CFU/mL of E. coli ATCC 25922 or S. aureus ATCC 29213. The final paenipeptin concentrations ranged from 0.5-64 μg/mL in 95% serum. The MIC in the presence of serum was then tested as described above.

[2] = tested on: Escherichia coli ATCC 25922; format: cell-based; details: ATCC 25922
[3] = tested on: Acinetobacter baumannii ATCC 19606; format: cell-based; details: ATCC 19606
Procedure: (§3) The minimum inhibitory concentration (MIC) of paenipeptin analogues was determined using the broth microdilution method (Wirker, M. A. Methods for Dilution Antimicrobial Susceptibility Tests for Bacteria that Grow Aerobically: Approved Standard M07-A8; Clinical and Laboratory Standards Institute, Wayne, Pa., 2009). Seven reference strains (Acinetobacter baumannii ATCC 19606, Escherichia coli ATCC 25922, Klebsiella pneumoniae ATCC 13883, Pseudomonas aeruginosa ATCC 27853, Enterococcus faecium ATCC 19434, Staphylococcus aureus ATCC 29213 and methicillin-resistant S. aureus ATCC 43300) were subjected to MIC testing.
(§4) Paenipeptin analogues were two-fold diluted in tryptic soy broth (TSB; Becton Dickinson) and mixed with an equal volume of bacterial suspensions in TSB containing approximately 1.5×10^5 colony-forming units (CFU)/mL in a clear UV-sterilized 96-well microtiter plate (NBS, Corning Inc., Corning, N.Y.). […] The microtiter plate was incubated at 37° C. for 18-20 h.

S. aureus ATCC 43300 = format: cell-based, Staphylococcus aureus
From the text: (§1) The surviving cells from each antimicrobial concentration with no visible growth were enumerated by plating on tryptic soy agar (TSA). MBC was defined as the lowest concentration of the antimicrobial agent that led to at least a 99.9% reduction in the number of viable bacterial cells relative to the initial inoculum. There were three independent experiments with one replicate in each experiment.

S. aureus ATCC 29213 [4] = format: cell-based, Staphylococcus aureus
From the text: as §1

rabbit red blood cells = test: Hemolytic activity; format: cell-based; details: for Hemolysis: relative to Triton X-100
Procedure: Hemolytic activity was evaluated using defibrinated rabbit blood in a 96-well plate as described previously. A nonionic surfactant Triton X-100, which is capable of lysing red blood cells (RBCs), was used at 0.1% as a positive control. Briefly, rabbit blood (Hardy Diagnostics, Santa Maria, Calif.) was diluted with phosphate buffered saline (PBS; pH 7.2) at a 1:19 ratio (v/v) and free hemoglobin was removed by washing RBCs and centrifugation four times at 1,000×g at 4° C. for 5 min. Aliquots (50 μL) of washed RBCs were incubated with 150 μL two-fold dilutions of paenipeptin analogues at final concentrations of 16-128 μg/mL at 37° C. for 30 min in a microtiter plate (NBS, Corning Inc.). After incubation, treated RBCs were gently mixed by repeated pipetting. Aliquots (20 μL) of the cell suspension were mixed with 200 μL PBS in a new 96-well plate and centrifuged at 2,204×g for 10 min. The supernatant was transferred to a new 96-well plate for absorbance measurement at 415 nm using a Cell Imaging Multimode Reader (Cytation 3, BioTek; Winooski, Vt.). The percent hemolysis observed after exposure to each paenipeptin analogue was calculated relative to Triton X-100.

E. coli ATCC 25922 = format: cell-based, Escherichia coli
From the text: as §1

[5] = tested on: Pseudomonas aeruginosa ATCC 27853; format: cell-based; details: ATCC 27853
Procedure: as §3, §4

K. pneumoniae ATCC 13883 = format: cell-based, Klebsiella pneumoniae
From the text: as §1

P. aeruginosa ATCC 27853 = format: cell-based, Pseudomonas aeruginosa
From the text: as §1

E. faecium ATCC 19434 = format: cell-based, Enterococcus faecium
From the text: as §1

A. baumannii ATCC 19606 = format: cell-based, Acinetobacter baumannii
From the text: as §1

[6] = tested on: methicillin-resistant S. aureus ATCC 43300; format: cell-based, Staphylococcus aureus; details: ATCC 43300
Procedure: as §3, §4

[7] = tested on: Klebsiella pneumoniae ATCC 13883; format: cell-based; details: ATCC 13883
Procedure: as §3, §4

[8] = tested on: methicillin-resistant S. aureus strain LAC biofilm; test: Established catheter-associated biofilm in vitro; format: cell-based, Staphylococcus aureus; details: data not shown
Procedure: Each well was inoculated with the methicillin-resistant S. aureus strain LAC or P. aeruginosa ATCC 27853 to an OD600nm of 0.05. […] After 72 h of exposure, catheters were rinsed with PBS, followed by sonication (for S. aureus) or vigorous vortexing (for P. aeruginosa) to quantitatively recover adherent bacteria. Viable S. aureus or P. aeruginosa cells were enumerated by plating serial dilutions on TSA.

[9] = tested on: Staphylococcus aureus ATCC 29213; format: cell-based; details: ATCC 29213
Procedure: as §3, §4

[10] = tested on: K. pneumoniae FDA-CDC AR 0044; test: microbe, parasite or virus in culture; details: Klebsiella pneumoniae, read-out: MIC alone
[11] = tested on: K. pneumoniae FDA-CDC AR 0034; test: microbe, parasite or virus in culture; details: Klebsiella pneumoniae, read-out: MIC alone
[12] = tested on: A. baumannii FDA-CDC AR 0083; test: microbe, parasite or virus in culture; details: Acinetobacter baumannii, read-out: MIC alone
[13] = tested on: K. pneumoniae FDA-CDC AR 0080; test: microbe, parasite or virus in culture; details: Klebsiella pneumoniae, read-out: MIC alone
[14] = tested on: K. pneumoniae FDA-CDC AR 0068; test: microbe, parasite or virus in culture; details: Klebsiella pneumoniae, read-out: MIC alone
[15] = tested on: A. baumannii FDA-CDC AR 0052; test: microbe, parasite or virus in culture; details: Acinetobacter baumannii, read-out: MIC alone
[16] = tested on: A. baumannii FDA-CDC AR 0063; test: Time-kill kinetics in 95% human serum, alone and combined; format: cell-based, Acinetobacter baumannii; details: A. baumannii AR 0063, 24 h
Procedure: Bacterial viable counts were determined at 0, 2, 4, 6, and 24 h after antimicrobial treatment. Bacterial surviving counts at 24 h endpoints were subjected to analysis of variance (ANOVA) followed by Tukey's honest significant difference (HSD) tests using SPSS Statistics (version 24; SPSS, Inc., Chicago, Ill., USA).
To further test the therapeutic potential of paenipeptin analogues, the time-kill kinetics assays of paenipeptins alone or in combination with other antibiotics were performed in 95% human serum in vitro. Without antimicrobial treatment, the population of A. baumannii FDA-CDC AR 0063 increased from 5.8 log to 9.3 log within 24 h. […] (FIG. 7A).

[17] = tested on: A. baumannii FDA-CDC AR 0037; test: microbe, parasite or virus in culture; details: Acinetobacter baumannii, read-out: MIC alone
[18] = tested on: A. baumannii FDA-CDC AR 0070; test: microbe, parasite or virus in culture; details: Acinetobacter baumannii, read-out: MIC alone
[19] = tested on: A. baumannii FDA-CDC AR 0063; test: microbe, parasite or virus in culture; details: Acinetobacter baumannii, read-out: MIC alone
[20] = tested on: K. pneumoniae FDA-CDC AR 0097; test: microbe, parasite or virus in culture; details: Klebsiella pneumoniae, read-out: MIC alone
[21] = tested on: Klebsiella pneumoniae ATCC 13883; test: MIC of antibiotics with or without paenipeptin analogues (potentiation); format: cell-based; details: Klebsiella pneumoniae, ATCC13883
From the text: (§2) Gram-negative bacteria, including Acinetobacter and Klebsiella, are intrinsically resistant to the hydrophobic antibiotic rifampicin.

[22] = tested on: Acinetobacter baumannii ATCC 19606; test: as above; format: cell-based; details: Acinetobacter baumannii, ATCC19606; A. baumannii ATCC 19606; rifampicin alone; read-out: MIC of rifampicin at 0 μg/mL of paenipeptin analogues
From the text: as §2

MIC [2]: 0.5 to 2 µg/mL
MIC [3]: 2 to 4 µg/mL
MIC [5]: 1 to 2 µg/mL
Compound: CCCCCCC(=O)N[C@@H](CCN)C(=O)N[C@@H](Cc1ccccc1)C(=O)N[C@@H](CCN)C(=O)N[C@H](Cc1ccccc1)C(=O)N[C@@H](CC(C)C)C(=O)N[C@@H](CCN)C(=O)N[C@H](CC(C)C)C(=O)N[C@@H](Cc1ccccc1)C(=O)N[C@@H](CO)C(N)=O [Analogue 7] (Heptanoyl-[Dab]F[Dab][dF]L[Dab][dL]FS-NH2)
Minimum inhibitory concentration (S. aureus ATCC 29213 [1]): 32 to 64 µg/mL
Minimum inhibitory concentration [2]: 0.5 to 2 µg/mL
MBC (S. aureus ATCC 43300): 8 to 16 µg/mL
MBC (S. aureus ATCC 29213 [4]): 8 to 32 µg/mL
Hemolysis (rabbit red blood cells; 32 μg/mL): 5.10 ± 1.26%
Hemolysis (rabbit red blood cells; 64 μg/mL): 18.8 ± 2.44%
Hemolysis (rabbit red blood cells; 128 μg/mL): 64.2 ± 3.28%
MBC (E. coli ATCC 25922): 8 to 16 µg/mL

MIC [2]: 2 to 8 µg/mL
MIC [3]: 0.5 to 2 µg/mL
MIC [6]: 2 to 4 µg/mL
MIC [7]: 2 to 4 µg/mL
MIC [9]: 2 to 4 µg/mL
MIC [5]: 1 to 2 µg/mL
Compound: CCCCCCCCCC(=O)N[C@@H](CCN)C(=O)N[C@H](C(=O)N[C@@H](CCN)C(=O)N[C@H](Cc1ccccc1)C(=O)N[C@@H](CC(C)C)C(=O)N[C@@H](CCN)C(=O)N[C@@H](C(=O)N[C@@H](CC(C)C)C(=O)N[C@@H](CO)C(N)=O)C(C)C)[C@@H](C)CC [Analogue 12] (Decanoyl-[Dab]I[Dab][dF]L[Dab][dV]LS-NH2)
MBC (K. pneumoniae ATCC 13883): 4 to 8 µg/mL
Minimum inhibitory concentration [2]: 2 to 8 µg/mL
MBC (P. aeruginosa ATCC 27853): 2 to 4 µg/mL
MBC (S. aureus ATCC 43300): 2 to 4 µg/mL
MBC (S. aureus ATCC 29213 [4]): 4 to 8 µg/mL
MBC (E. faecium ATCC 19434): 2 to 4 µg/mL
MBC (A. baumannii ATCC 19606): 0.5 to 2 µg/mL
Hemolysis (rabbit red blood cells; 16 μg/mL): 14.3 ± 4.25%
Hemolysis (rabbit red blood cells; 32 μg/mL): 37.2 ± 8.62%
Hemolysis (rabbit red blood cells; 64 μg/mL): 73.4 ± 7.59%
hemolytic activity (in words) (rabbit red blood cells; 128 μg/mL): strong hemolytic activity
Hemolysis (rabbit red blood cells; 128 μg/mL): 93.9 ± 7.57%
activity against established catheter-associated biofilm (in words) [8]: no activity
Minimum inhibitory concentration [9]: 2 to 4 µg/mL

MIC [10]: 32 µg/mL (≈ 38.9 µM)
MIC [11]: 16 µg/mL (≈ 19.4 µM)
MIC [12]: 32 µg/mL (≈ 38.9 µM)
MIC [13]: > 32 µg/mL
MIC [14]: 32 µg/mL (≈ 38.9 µM)
MIC [15]: 1 µg/mL (≈ 1.22 µM)
MIC [17]: 2 µg/mL (≈ 2.43 µM)
MIC [18]: 1 µg/mL (≈ 1.22 µM)
MIC [19]: 1 µg/mL (≈ 1.22 µM)
MIC [20]: 32 µg/mL (≈ 38.9 µM)
MIC ([21]; K. pneumoniae ATCC 13883, rifampicin alone, read-out: MIC of rifampicin at 0 μg/mL of paenipeptin analogues): 16 µg/mL
MIC ([21]; K. pneumoniae, read-out: MIC of rifampicin alone): 19.4 µM
MIC [22]: 16 µg/mL
Compound: CO[C@H]1/C=C/O[C@@]2(C)Oc3c(C)c(O)c4c(O)c(c(/C=N/N5CCN(C)CC5)c(O)c4c3C2=O)NC(=O)/C(C)=C\C=C\[C@H](C)[C@H](O)[C@@H](C)[C@@H](O)[C@@H](C)[C@H](OC(C)=O)[C@@H]1C [rifampicin]
log reduction of cell population, single agent at 4 μg/ml [16]: 1.4 log
